Our source for the IC50 values is patent US11447475B2, “Isoxazole N-linked carbamoyl cyclohexyl acids as LPA antagonists” (BRISTOL-MYERS SQUIBB COMPANY, priority 2017, dated 2022).

Molecules are shown by their SMILES. Where two headings read alike, the source gives them in different places.

In the experiment the target is T1, human LPA1 (Homo sapiens, UniProt Q92633).
T1 construct: expressed in transfected cells; host or cells: Chinese hamster ovary (CHO) cells
In words: LPA1 functional antagonist assay (calcium flux). It is filed as cell-based. The note with it: read-out: hLPA1 IC50. Here is the method: The effectiveness of compounds of the present invention as LPA1 inhibitors can be determined in an LPA1 functional antagonist assay as follows:
Chinese hamster ovary cells overexpressing human LPA1 were plated overnight (15,000 cells/well) in poly-D-lysine coated 384-well microplates (Greiner bio-one, Cat #781946) in DMEM/F12 medium (Gibco, Cat #11039). Following overnight culture, cells were loaded with calcium indicator dye (AAT Bioquest Inc, Cat #34601) for 30 minutes at 37° C. The cells were then equilibrated to room temperature for 30 minutes before the assay. Test compounds solubilized in DMSO were transferred to 384 well non-binding surface plates (Corning, Cat #3575) using the Labcyte Echo acoustic dispense and diluted with assay buffer [1×HBSS with calcium/magnesium (Gibco Cat #14025-092), 20 mM HEPES (Gibco Cat #15630-080) and 0.1% fatty acid free BSA (Sigma Cat #A9205)] to a final concentration of 0.5% DMSO. Diluted compounds were added to the cells by FDSS6000 (Hamamatsu) at final concentrations ranging from 0.08 nM to 5 μM. and were then incubated for 20 min at room temperature at which time LPA (Avanti Polar Lipids Cat #857130C) was added at final concentrations of 10 nM to stimulate the cells. […] IC50 values were determined by fitting data to a 4-parameter logistic equation (GraphPad Prism, San Diego Calif.).

Where [1] appears, read: CHO cells overexpressing human LPA1, inhibition of calcium flux induced by 10 nM LPA.

T1 sequence (Q92633 whole entry): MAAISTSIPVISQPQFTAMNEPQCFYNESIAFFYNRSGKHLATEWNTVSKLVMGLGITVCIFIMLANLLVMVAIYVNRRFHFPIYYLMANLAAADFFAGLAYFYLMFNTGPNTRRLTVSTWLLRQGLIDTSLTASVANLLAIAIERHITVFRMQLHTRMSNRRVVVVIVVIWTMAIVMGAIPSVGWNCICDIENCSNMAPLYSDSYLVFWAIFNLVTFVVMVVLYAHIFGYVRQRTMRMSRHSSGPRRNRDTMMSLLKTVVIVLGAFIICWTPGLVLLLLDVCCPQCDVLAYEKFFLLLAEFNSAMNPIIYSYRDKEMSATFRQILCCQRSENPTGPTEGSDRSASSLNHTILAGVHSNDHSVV

As for `Cc1noc(-c2ccc(O[C@H]3CCC[C@H](C(=O)O)C3)cn2)c1CNC(=O)OC1CC(C)(C)C1` [Example 59], the IC50 amounted to 11 nM.
As to `Cc1noc(-c2ccc(O[C@H]3CCCC(C(=O)O)C3)cc2)c1CNC(=O)OCC1CC1C` (mixture of isomers) [Example 14], the IC50 stood at 97 nM.
Still for that read-out and setting: in the case of `CCC[C@H](C)OC(=O)NCc1c(C)noc1-c1ccc(O[C@H]2CCC[C@H](C(=O)O)C2)cn1` [Example 55, (1S,3S)-3-((6-(3-methyl-4-((((((S)-pentan-2-yl)oxy)carbonyl)amino) Methyl) Isoxazol-5-yl)pyridin-3-yl)oxy)cyclohexane-1-carboxylic Acid] it was 23 nM.
Same read-out and setting: with `Cc1noc(-c2ccc(O[C@@H]3CCC[C@@H](C(=O)O)C3)cc2)c1CNC(=O)OCC(C)(C)C` (racemic) [Example 26] the figure was 334 nM.
Still for that read-out and setting: with `CCCOC(=O)NCc1c(C)noc1-c1ccc(O[C@H]2CCC[C@H](C(=O)O)C2)c(C)n1` [Example 41] the figure was 20 nM; with `Cc1noc(-c2ccc(O[C@@H]3CCC[C@@H](C(=O)O)C3)cc2)c1CNC(=O)O[C@@H](C)c1ccccc1` (mixture of isomers) [Example 16], 1610 nM.
Regarding `Cc1nc(-c2onc(C)c2CNS(=O)(=O)Cc2ccccc2)ccc1O[C@H]1CCC[C@H](C(=O)O)C1` [Example 51, (1S,3S)-3-((2-methyl-6-(3-methyl-4-(((phenylmethyl)sulfonamido)methyl) Isoxazol-5-yl)pyridin-3-yl)oxy)cyclohexane-1-carboxylic Acid], under setting [1], the IC50 was found to be 620 nM.
With `Cc1noc(-c2cnc(O[C@H]3CCC[C@H](C(=O)O)C3)cn2)c1CNC(=O)OCc1ccccc1` (racemic) [Example 52, (±)-Trans-3-((5-(4-((((benzyloxy)carbonyl)amino)methyl)-3-methyl-isoxazol-5-yl)pyrazin-2-yl)oxy)cyclohexane-1-carboxylic Acid], the IC50 was found to be 111 nM.
On the same count and under the same terms, with `CCC[C@@H](C)OC(=O)NCc1c(C)noc1-c1ccc(O[C@H]2CCC[C@H](C(=O)O)C2)cn1` [Example 58] the figure was 37 nM; with `Cc1noc(-c2ccc(O[C@H]3CCC[C@H](C(=O)O)C3)cn2)c1CNC(=O)OCc1ccccc1` (single isomer, unassigned) [Example 56], 4 nM; with `Cc1noc(-c2ccc(O[C@H]3CCC[C@@H](C(=O)O)C3)cc2)c1NC(=O)O[C@H](C)C1CC1` (racemic) [Example 33], 84 nM.
Consider `Cc1noc(-c2ccc(O[C@H]3CCC[C@H](C(=O)O)C3)cn2)c1CNC(=O)OCc1cccc(Cl)c1` [Example 4], for which the IC50 worked out at 30 nM.
As to `Cc1nc(-c2onc(C)c2CN(C)C(=O)OCC(C)C)ccc1O[C@H]1CCC[C@H](C(=O)O)C1` [Example 40], the IC50 was 34 nM.
Same read-out and setting: with `CCCCOC(=O)N(C)Cc1c(C)noc1-c1ccc(O[C@H]2CCC[C@H](C(=O)O)C2)cn1` [Example 60] the figure was 33 nM; with `Cc1noc(-c2ccc(O[C@H]3CCC[C@H](C(=O)O)C3)cc2)c1CNC(=O)OCc1cccc(Cl)c1` [Example 11], 197 nM; with `Cc1noc(-c2ccc(O[C@@H]3CCC[C@@H](C(=O)O)C3)cc2)c1CNC(=O)OCc1ccccc1F` [Example 19], 152 nM.
Regarding `Cc1nc(-c2onc(C)c2CNC(=O)OC(C)(C)C)ccc1O[C@H]1CCC[C@H](C(=O)O)C1` [Example 50, (1S,3S)-3-((6-(4-(((tert-butoxycarbonyl)amino)methyl)-3-methylisoxazol-5-yl)-2-methylpyridin-3-yl)oxy)cyclohexane-1-carboxylic Acid], the IC50 came to 44 nM.
Same read-out and setting: in the case of `CCCCOC(=O)NCc1c(C)noc1-c1ccc(O[C@H]2CCC[C@H](C(=O)O)C2)c(C)n1` [Example 42] it was 8 nM; in that of `COCCOC(=O)NCc1c(C)noc1-c1ccc(O[C@H]2CCC[C@H](C(=O)O)C2)c(C)n1` [Example 46], 275 nM.
Same read-out and setting: with `Cc1noc(-c2ccc(O[C@@H]3CCC[C@@H](C(=O)O)C3)cc2)c1CNC(=O)OCCC1CC1` [Example 28] the figure was 263 nM.
Take `Cc1noc(-c2ccc(O[C@H]3CCC[C@H](C(=O)O)C3)cn2)c1CNC(=O)OCc1cccc(F)c1` [Example 3]: under setting [1], the IC50 amounted to 5 nM.
Consider `Cc1noc(-c2ccc(O[C@@H]3CCC[C@@H](C(=O)O)C3)cc2)c1CNC(=O)OCc1ccccc1Cl` [Example 20], for which the IC50 is 244 nM.
Turning to `CCCCCOC(=O)NCc1c(C)noc1-c1ccc(O[C@H]2CCC[C@H](C(=O)O)C2)c(C)n1` [Example 43], the IC50 was found to be 8 nM.
Still for that read-out and setting: with `CCCCCCOC(=O)NCc1c(C)noc1-c1ccc(O[C@H]2CCC[C@H](C(=O)O)C2)cn1` [Example 36, (1S,3S)-3-((6-(4-((((hexyloxy)carbonyl)amino)methyl)-3-methylisoxazol-5-yl)pyridin-3-yl)oxy)cyclohexane-1-carboxylic Acid] the figure was 46 nM.
Same read-out and setting: with `Cc1noc(-c2ccc(O[C@@H]3CCC[C@@H](C(=O)O)C3)cc2)c1CNC(=O)OCCC(C)C` (racemic) [Example 24] the figure was 63 nM; with `Cc1nc(-c2onc(C)c2CNC(=O)OCc2ccccc2)ccc1O[C@H]1CCC[C@H](C(=O)O)C1` [Example 48], 5 nM.
`Cc1nc(-c2onc(C)c2CNC(=O)OC(C)C)ccc1O[C@H]1CCC[C@H](C(=O)O)C1` [Example 47]: the IC50 turned out to be 30 nM.
As for `Cc1noc(-c2ccc(O[C@H]3CCC[C@H](C(=O)O)C3)cn2)c1CNC(=O)NCc1ccccc1` [Example 35, (1S,3S)-3-((6-(4-((3-benzylureido)methyl)-3-methylisoxazol-5-yl)pyridin-3-yl)oxy)cyclohexane-1-carboxylic Acid], the IC50 was 229 nM.
The same measure, in the same setting: in the case of `Cc1noc(-c2ccc(O[C@H]3CCC[C@H](C(=O)O)C3)cn2)c1NC(=O)O[C@H](C)C1CC1` [Example 34, (1S,3S)-3-((6-(4-((((R)-1-cyclopropylethoxy)carbonyl)amino)-3-methylisoxazol-5-yl)pyridin-3-yl)oxy)cyclohexane-1-carboxylic Acid] it was 30 nM.
On the same count and under the same terms, with `Cc1nc(-c2onc(C)c2CN(C)C(=O)OCc2ccccc2)ccc1O[C@H]1CCC[C@H](C(=O)O)C1` [Example 49, (1S,3S)-3-((6-(4-((((Benzyloxy)carbonyl)(methyl)amino)methyl)-3-methyl-isoxazol-5-yl)-2-methylpyridin-3-yl)oxy)cyclohexanecarboxylic Acid] the figure was 6 nM.
`Cc1noc(-c2ccc(O[C@H]3CCC[C@H](C(=O)O)C3)cn2)c1CNS(=O)(=O)CCc1ccccc1` [Example 53, (1S,3S)-3-((6-(3-methyl-4-(((2-phenylethyl)sulfonamido)methyl)isoxazol-5-yl) Pyridin-3-yl)oxy)cyclohexane-1-carboxylic Acid]: the IC50 under setting [1] is 4 nM.
Still for that read-out and setting: in the case of `Cc1noc(-c2ccc(O[C@H]3CCC[C@H](C(=O)O)C3)cn2)c1CNC(=O)OCc1ccc(F)cc1` [Example 1, (1S,3S)-3-((6-(4-(((((4-Fluorobenzyl)oxy)carbonyl)amino)methyl)-3-methylisoxazol-5-yl) Pyridin-3-yl)oxy)cyclohexanecarboxylic Acid] it was 9 nM.
As to `Cc1cccc(COC(=O)NCc2c(C)noc2-c2ccc(O[C@H]3CCC[C@H](C(=O)O)C3)cn2)c1` [Example 5], the IC50 was found to be 25 nM.
The same measure, in the same setting: with `Cc1noc(-c2ccc(O[C@H]3CCC[C@H](C(=O)O)C3)cn2)c1CNC(=O)OCC1CC1(C)C` (some centres unmarked) [Example 63] the figure was 16 nM; with `Cc1noc(-c2ccc(O[C@@H]3CCC[C@@H](C(=O)O)C3)cc2)c1CNC(=O)OCc1ccc(F)cc1` [Example 18], 159 nM.
On the same count and under the same terms, in the case of `Cc1noc(-c2ccc(O[C@H]3CCC[C@H](C(=O)O)C3)cc2)c1CNC(=O)OCc1ccc(Cl)cc1` [Example 12] it was 2.77 nM; in that of `Cc1noc(-c2ccc(O[C@H]3CCC[C@H](C(=O)O)C3)cn2)c1CNC(=O)OCC1CC(C)(C)C1` [Example 8], 5.5 nM.
Still for that read-out and setting: with `Cc1noc(-c2ccc(O[C@@H]3CCC[C@@H](C(=O)O)C3)cn2)c1CNC(=O)OCc1ccccc1` (single isomer, unassigned) [Example 57] the figure was 49 nM; with `Cc1noc(-c2ccc(O[C@H]3CCC[C@H](C(=O)O)C3)cn2)c1CNC(=O)CCc1ccccc1` [Example 54, (1S,3S)-3-((6-(3-methyl-4-((3-phenylpropanamido)methyl)isoxazol-5-yl)pyridin-3-yl)oxy)cyclohexane-1-carboxylic Acid], 255 nM; with `Cc1noc(-c2ccc(O[C@@H]3CCC[C@@H](C(=O)O)C3)cc2)c1CNC(=O)OCC(C)C` (racemic) [Example 22], 2130 nM.
For `CCC(C)COC(=O)NCc1c(C)noc1-c1ccc(O[C@@H]2CCC[C@@H](C(=O)O)C2)cc1` (mixture of isomers) [Example 25], the IC50 amounted to 96 nM.
The same measure, in the same setting: with `Cc1noc(-c2ccc(O[C@H]3CCC[C@H](C(=O)O)C3)cn2)c1CN(C)C(=O)OCc1ccccc1` [Example 64] the figure was 14 nM; with `Cc1nc(-c2onc(C)c2CNC(=O)OCC(C)C)ccc1O[C@H]1CCC[C@H](C(=O)O)C1` [Example 39], 37 nM.
As for `CCCCOC(=O)NCc1c(C)noc1-c1ccc(O[C@@H]2CCC[C@@H](C(=O)O)C2)cc1` (racemic) [Example 23], the IC50 worked out at 319 nM.

Usually IC50 stands for the point on the concentration scale where inhibition reaches its midpoint.
